Values quoted from earlier work, collected in PMC9800952 (Asian Journal of Pharmaceutical Sciences, 2022).

Details: pH 7

CC(C)OC(=O)CCC/C=C\C[C@@H]1[C@@H](CC[C@@H](O)CCc2ccccc2)[C@H](O)C[C@@H]1O [latanoprost]
LogD (pH7): 4.28
